According to ChEMBL document CHEMBL4613209, “Quinolone hybrids and their anti-cancer activities: An overview” (Eur J Med Chem, 2019):
Values belong to the compound of their own block, whether it stands above or below them.

Experiments:
L1210 [1] = experiment: Antiproliferative activity against mouse L1210 cells by MTT assay; assay type: functional, cell-based
SMMC-7721 [2] = experiment: Antiproliferative activity against human SMMC7721 cells by MTT assay; assay type: functional, cell-based
HL-60 [3] = experiment: Antiproliferative activity against human HL60 cells by MTT assay; assay type: functional, cell-based
Hep 3B2 = experiment: Cytotoxicity against human Hep3B cells assessed as reduction in cell viability by MTT assay; assay type: functional, cell-based
SW480 = experiment: Cytotoxicity against human SW480 cells assessed as reduction in cell viability by MTT assay; assay type: functional, cell-based
HL-60 [4] = experiment: Cytotoxicity against human HL60 cells assessed as reduction in cell viability by MTT assay; assay type: functional, cell-based
A-431 = experiment: Cytotoxicity against human A431 cells assessed as reduction in cell viability by MTT assay; assay type: functional, cell-based
L1210 [5] = experiment: Cytotoxicity against mouse L1210 cells assessed as reduction in cell viability by MTT assay; assay type: functional, cell-based
CAPAN-1 = experiment: Cytotoxicity against human Capan1 cells assessed as reduction in cell viability by MTT assay; assay type: functional, cell-based
A549 = experiment: Antiproliferative activity against human A549 cells after 72 hrs by MTT assay; assay type: functional, cell-based; details: A549, 72 h
HL-60 [6] = experiment: Antiproliferative activity against human HL60 cells after 72 hrs by MTT assay; assay type: functional, cell-based; details: HL-60, 72 h
SK-MEL3 = experiment: Cytotoxicity against human SK-MEL-3 cells assessed as reduction in cell viability by MTT assay; assay type: functional, cell-based
CHO = experiment: Cytotoxicity against CHO cells assessed as reduction in cell viability; assay type: functional, cell-based; details: Cricetulus griseus
SMMC-7721 [7] = experiment: Cytotoxicity against human SMMC7721 cells assessed as reduction in cell viability by MTT assay; assay type: functional, cell-based
MCF7 [8] = experiment: Cytotoxicity against human MCF7 cells assessed as reduction in cell viability by MTT assay; assay type: functional, cell-based
HL-60 [9] = experiment: Cytotoxicity against human HL60 cells assessed as reduction in cell viability; assay type: functional, cell-based
L1210 [10] = experiment: Cytotoxicity against mouse L1210 cells assessed as reduction in cell viability; assay type: functional, cell-based
EJ = experiment: Cytotoxicity against human EJ cells assessed as reduction in cell viability by MTT assay; assay type: functional, cell-based
SW-620 = experiment: Cytotoxicity against human SW620 cells assessed as reduction in cell viability; assay type: functional, cell-based
PC-3 = experiment: Cytotoxicity against human PC3 cells assessed as reduction in cell viability; assay type: functional, cell-based
HepG2 = experiment: Cytotoxicity against human HepG2 cells assessed as reduction in cell viability; assay type: functional, cell-based
MGC-803 = experiment: Cytotoxicity against human MGC803 cells assessed as reduction in cell viability; assay type: functional, cell-based
MCF7 [11] = experiment: Cytotoxicity against human MCF7 cells assessed as reduction in cell viability; assay type: functional, cell-based
GES1 = experiment: Cytotoxicity against human GES-1 cells assessed as reduction in cell viability; assay type: cell-based
NCI-H460 = experiment: Cytotoxicity against human NCI-H460 cells assessed as reduction in cell viability; assay type: functional, cell-based

SMILES: C[C@H]1COc2c(N3CCN(C)CC3)c(F)cc3c(=O)c(-c4nnc(NC(=O)CCCCCC(=O)NO)s4)cn1c23
IC50 (SW-620): 19 to 127 nM
IC50 (PC-3): 19 to 127 nM
IC50 (HepG2): 19 to 127 nM
IC50 (MGC-803): 19 to 127 nM
IC50 (MCF7 [11]): 19 to 127 nM
IC50 (GES1): > 81500 nM
IC50 (NCI-H460): 19 to 127 nM

SMILES: C[C@H]1COc2c(N3CCN(C)CC3)c(F)cc3c(=O)c(-c4nnc(NC(=O)CCCCC(=O)Nc5ccccc5N)s4)cn1c23
IC50 (SW-620): 46 to 203 nM
IC50 (PC-3): 46 to 203 nM
IC50 (HepG2): 46 to 203 nM
IC50 (MGC-803): 46 to 203 nM
IC50 (MCF7 [11]): 46 to 203 nM
IC50 (GES1): > 81500 nM
IC50 (NCI-H460): 46 to 203 nM

SMILES: CCc1c2c(nc3ccc(OC(=O)N4CCC(N5CCCCC5)CC4)cc13)-c1cc3c(c(=O)n1C2)COC(=O)[C@]3(O)CC [IRINOTECAN]
IC50 (HL-60 [6]): 32 to 44 nM

SMILES: C[C@H]1COc2c(N3CCN(C)CC3)c(F)cc3c(=O)c(-c4nnc(NC(=O)CCCC(=O)O)s4)cn1c23
IC50 (SW-620): 1100 to 14300 nM
IC50 (PC-3): 1100 to 14300 nM
IC50 (HepG2): 1100 to 14300 nM
IC50 (MGC-803): 1100 to 14300 nM
IC50 (MCF7 [11]): 1100 to 14300 nM
IC50 (GES1): > 81500 nM
IC50 (NCI-H460): 1100 to 14300 nM

SMILES: CCn1cc(C(=O)O)c(=O)c2cc(F)c(N3CCN(C(=N)NS(=O)(=O)c4ccccc4)CC3)cc21
IC50 (A549): 32 to 161 nM
IC50 (HL-60 [6]): 32 to 161 nM

SMILES: CCn1cc(C(=O)O)c(=O)c2cc(F)c(N3CCN(C(=N)NS(=O)(=O)c4ccc(C)cc4)CC3)cc21
IC50 (A549): 32 to 161 nM
IC50 (HL-60 [6]): 32 to 161 nM

SMILES: C[C@H]1COc2c(N3CCN(C)CC3)c(F)cc3c(=O)c(-c4nnc(NC(=O)CCCCCCC(=O)Nc5ccccc5N)s4)cn1c23
IC50 (SW-620): 46 to 203 nM
IC50 (PC-3): 46 to 203 nM
IC50 (HepG2): 46 to 203 nM
IC50 (MGC-803): 46 to 203 nM
IC50 (MCF7 [11]): 46 to 203 nM
IC50 (GES1): > 81500 nM
IC50 (NCI-H460): 46 to 203 nM

SMILES: C[C@H]1COc2c(N3CCN(C)CC3)c(F)cc3c(=O)c(-c4nnc(NC(=O)CCCC(=O)Nc5ccccc5N)s4)cn1c23
IC50 (SW-620): 46 to 203 nM
IC50 (PC-3): 46 to 203 nM
IC50 (HepG2): 46 to 203 nM
IC50 (MGC-803): 46 to 203 nM
IC50 (MCF7 [11]): 46 to 203 nM
IC50 (GES1): > 81500 nM
IC50 (NCI-H460): 46 to 203 nM

SMILES: C[C@H]1COc2c(N3CCN(C)CC3)c(F)cc3c(=O)c(-c4nnc(NC(=O)CCCCCCCC(=O)NO)s4)cn1c23
IC50 (SW-620): 19 to 127 nM
IC50 (PC-3): 19 to 127 nM
IC50 (HepG2): 19 to 127 nM
IC50 (MGC-803): 19 to 127 nM
IC50 (MCF7 [11]): 19 to 127 nM
IC50 (GES1): > 81500 nM
IC50 (NCI-H460): 19 to 127 nM

Continued, in another order:

IC50 (L1210 [1]): 1000 to 48600 nM
IC50 (SMMC-7721 [2]): 1000 to 48600 nM
IC50 (HL-60 [3]): 1000 to 48600 nM
SMILES: O=C(O)c1cn(C2CC2)c2c(c1=O)C=C(F)C1=NN=C(c3ccc(O)cc3)CN12

IC50 (L1210 [1]): ≥ 100000 nM
IC50 (SMMC-7721 [2]): ≥ 100000 nM
IC50 (HL-60 [3]): ≥ 100000 nM
IC50 (A549): > 302 nM
IC50 (HL-60 [6]): > 302 nM
SMILES: O=C(O)c1cn(C2CC2)c2cc(N3CCNCC3)c(F)cc2c1=O [CIPROFLOXACIN]
IC50 (Hep 3B2): > 100000 nM
IC50 (SW480): 137000 to 238000 nM
IC50 (HL-60 [4]): > 100000 nM
IC50 (A-431): 137000 to 238000 nM
IC50 (L1210 [5]): > 100000 nM
IC50 (CAPAN-1): > 100000 nM
IC50 (SK-MEL3): 137000 to 238000 nM
IC50 (CHO): > 150000 nM
IC50 (SMMC-7721 [7]): 137000 to 238000 nM
IC50 (MCF7 [8]): > 100000 nM
IC50 (HL-60 [9]): > 150000 nM
IC50 (L1210 [10]): > 150000 nM
IC50 (EJ): 137000 to 238000 nM

IC50 (L1210 [1]): 1000 to 48600 nM
IC50 (SMMC-7721 [2]): 1000 to 48600 nM
IC50 (HL-60 [3]): 1000 to 48600 nM
SMILES: Cc1ccccc1C1=NN=C2C(F)=Cc3c(n(C4CC4)cc(C(=O)O)c3=O)N2C1

IC50 (L1210 [1]): 3500 nM
IC50 (SMMC-7721 [2]): 1000 nM
IC50 (HL-60 [3]): 1000 to 48600 nM
SMILES: O=C(O)c1cn(C2CC2)c2c(c1=O)C=C(F)C1=NN=C(c3ccc([N+](=O)[O-])cc3)CN12

IC50 (L1210 [1]): 1000 to 48600 nM
IC50 (SMMC-7721 [2]): 1000 to 48600 nM
IC50 (HL-60 [3]): 1000 to 48600 nM
SMILES: O=C(O)c1cn(C2CC2)c2c(c1=O)C=C(F)C1=NN=C(c3ccc(Br)cc3)CN12

IC50 (A549): 32 to 161 nM
IC50 (HL-60 [6]): 32 to 161 nM
SMILES: N=C(NS(=O)(=O)c1ccc(Cl)cc1)N1CCN(c2cc3c(cc2F)c(=O)c(C(=O)O)cn3C2CC2)CC1

IC50 (L1210 [1]): 1000 to 48600 nM
IC50 (SMMC-7721 [2]): 1000 to 48600 nM
IC50 (HL-60 [3]): 1000 to 48600 nM
SMILES: O=C(O)c1cn(C2CC2)c2c(c1=O)C=C(F)C1=NN=C(c3ccccc3F)CN12

IC50 (L1210 [1]): 3200 nM
IC50 (SMMC-7721 [2]): 1600 nM
IC50 (HL-60 [3]): 1000 to 48600 nM
SMILES: O=C(O)c1cn(C2CC2)c2c(c1=O)C=C(F)C1=NN=C(c3cccc([N+](=O)[O-])c3)CN12

IC50 (L1210 [1]): 1000 to 48600 nM
IC50 (SMMC-7721 [2]): 1000 to 48600 nM
IC50 (HL-60 [3]): 1000 to 48600 nM
SMILES: Cc1ccc(C2=NN=C3C(F)=Cc4c(n(C5CC5)cc(C(=O)O)c4=O)N3C2)cc1

IC50 (A549): 32 to 161 nM
IC50 (HL-60 [6]): 32 to 161 nM
SMILES: N=C(NS(=O)(=O)c1ccccc1C(F)(F)F)N1CCN(c2cc3c(cc2F)c(=O)c(C(=O)O)cn3C2CC2)CC1

IC50 (A549): 32 to 161 nM
IC50 (HL-60 [6]): 32 to 161 nM
SMILES: Cc1ccc(S(=O)(=O)NC(=N)N2CCN(c3cc4c(cc3F)c(=O)c(C(=O)O)cn4C3CC3)CC2)cc1

IC50 (L1210 [1]): 1000 to 48600 nM
IC50 (SMMC-7721 [2]): 1000 to 48600 nM
IC50 (HL-60 [3]): 1000 to 48600 nM
SMILES: Nc1cccc(C2=NN=C3C(F)=Cc4c(n(C5CC5)cc(C(=O)O)c4=O)N3C2)c1

IC50 (L1210 [1]): 1000 to 48600 nM
IC50 (SMMC-7721 [2]): 1000 to 48600 nM
IC50 (HL-60 [3]): 1000 to 48600 nM
SMILES: O=C(O)c1cn(C2CC2)c2c(c1=O)C=C(F)C1=NN=C(c3ccc(Cl)cc3)CN12

IC50 (L1210 [1]): 1000 to 48600 nM
IC50 (SMMC-7721 [2]): 1000 to 48600 nM
IC50 (HL-60 [3]): 1000 to 48600 nM
SMILES: COc1ccccc1C1=NN=C2C(F)=Cc3c(n(C4CC4)cc(C(=O)O)c3=O)N2C1
